Source: patent publication US9693556B2, “Herbicidal pyridazinone derivatives” (SYNGENTA LIMITED, priority 2011, dated 2017)

Assays:
Assay type in all cases: in vivo
[1] = test system: Echinochloa crus-galli (ECHCG); assay: Post-emergence herbicidal glasshouse test on Echinochloa crus-galli; conditions: post-emergence; 1000 g/h; evaluated after 13 days
Method in brief: (§1)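 Pre-emergence treatment came one day after sowing, post-emergence treatment after eight days' growth; both used 1000 g/h in a 0.5% Tween 20 acetone/water vehicle. Percent damage, scored 1–5, was read 13 days later.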

[2] = test system: Alopecurus myosuroides (ALOMY); assay: Pre-emergence herbicidal glasshouse test on Alopecurus myosuroides; conditions: pre-emergence; 1000 g/h; evaluated after 13 days
Method in brief: as §1

[3] = test system: Alopecurus myosuroides (ALOMY); assay: Post-emergence herbicidal glasshouse test on Alopecurus myosuroides; conditions: post-emergence; 1000 g/h; evaluated after 13 days
Method in brief: as §1

Solanum nigrum (SOLNI) [4] = assay: Pre-emergence herbicidal glasshouse test on Solanum nigrum; conditions: pre-emergence; 1000 g/h; evaluated after 13 days
Method in brief: as §1

[5] = test system: Ipomoea hederacea (IPOHE); assay: Post-emergence herbicidal glasshouse test on Ipomoea hederacea; conditions: post-emergence; 1000 g/h; evaluated after 13 days
Method in brief: as §1

[6] = test system: Ipomoea hederacea (IPOHE); assay: Pre-emergence herbicidal glasshouse test on Ipomoea hederacea; conditions: pre-emergence; 1000 g/h; evaluated after 13 days
Method in brief: as §1

[7] = test system: Amaranthus retoflexus (AMARE); assay: Post-emergence herbicidal glasshouse test on Amaranthus retoflexus; conditions: post-emergence; 1000 g/h; evaluated after 13 days
Method in brief: as §1

[8] = test system: Echinochloa crus-galli (ECHCG); assay: Pre-emergence herbicidal glasshouse test on Echinochloa crus-galli; conditions: pre-emergence; 1000 g/h; evaluated after 13 days
Method in brief: as §1

Setaria faberi (SETFA) [9] = assay: Pre-emergence herbicidal glasshouse test on Setaria faberi; conditions: pre-emergence; 1000 g/h; evaluated after 13 days
Method in brief: as §1

[10] = test system: Amaranthus retoflexus (AMARE); assay: Pre-emergence herbicidal glasshouse test on Amaranthus retoflexus; conditions: pre-emergence; 1000 g/h; evaluated after 13 days
Method in brief: as §1

Setaria faberi (SETFA) [11] = assay: Post-emergence herbicidal glasshouse test on Setaria faberi; conditions: post-emergence; 1000 g/h; evaluated after 13 days
Method in brief: as §1

Solanum nigrum (SOLNI) [12] = assay: Post-emergence herbicidal glasshouse test on Solanum nigrum; conditions: post-emergence; 1000 g/h; evaluated after 13 days
Method in brief: as §1

| Compound | POST Application ECHCG herbicidal damage (five point scale) [1] | PRE Application ALOMY herbicidal damage (five point scale) [2] | POST Application ALOMY herbicidal damage (five point scale) [3] | PRE Application SOLNI herbicidal damage (five point scale) (Solanum nigrum (SOLNI) [4]) | POST Application IPOHE herbicidal damage (five point scale) [5] | PRE Application IPOHE herbicidal damage (five point scale) [6] | POST Application AMARE herbicidal damage (five point scale) [7] | PRE Application ECHCG herbicidal damage (five point scale) [8] | PRE Application SETFA herbicidal damage (five point scale) (Setaria faberi (SETFA) [9]) | PRE Application AMARE herbicidal damage (five point scale) [10] | POST Application SETFA herbicidal damage (five point scale) (Setaria faberi (SETFA) [11]) | POST Application SOLNI herbicidal damage (five point scale) (Solanum nigrum (SOLNI) [12]) |
| --- | --- | --- | --- | --- | --- | --- | --- | --- | --- | --- | --- | --- |
| Cn1ncc(-c2ccc(Cl)cc2C(F)(F)F)c(O)c1=O [Compound 1.113] | 2 (2=20-39% damage) | 1 (1=0-19% damage) | 2 (2=20-39% damage) | 4 (4=60-79% damage) | 5 (5=80-100% damage) | 2 (2=20-39% damage) | 5 (5=80-100% damage) | 1 (1=0-19% damage) | 1 (1=0-19% damage) | 5 (5=80-100% damage) | 3 (3=40-59% damage) | 5 (5=80-100% damage) |
| Cn1ncc(-c2ccccc2Cl)c(O)c1=O [Compound 1.114] | 1 (1=0-19% damage) | 1 (1=0-19% damage) | 1 (1=0-19% damage) | 1 (1=0-19% damage) | 1 (1=0-19% damage) | 1 (1=0-19% damage) | 1 (1=0-19% damage) | 1 (1=0-19% damage) | 1 (1=0-19% damage) | 1 (1=0-19% damage) | 1 (1=0-19% damage) | 1 (1=0-19% damage) |
| Cn1ncc(-c2ccccc2C(F)(F)F)c(O)c1=O [Compound 1.116] | 2 (2=20-39% damage) | 2 (2=20-39% damage) | 1 (1=0-19% damage) | 3 (3=40-59% damage) | 4 (4=60-79% damage) | 1 (1=0-19% damage) | 4 (4=60-79% damage) | 1 (1=0-19% damage) | 2 (2=20-39% damage) | 5 (5=80-100% damage) | 2 (2=20-39% damage) | 5 (5=80-100% damage) |
| Cn1ncc(-c2c(Cl)cccc2Cl)c(O)c1=O [Compound 1.118] | 2 (2=20-39% damage) | 1 (1=0-19% damage) | 1 (1=0-19% damage) | 1 (1=0-19% damage) | 2 (2=20-39% damage) | 1 (1=0-19% damage) | 4 (4=60-79% damage) | 1 (1=0-19% damage) | 1 (1=0-19% damage) | 1 (1=0-19% damage) | 1 (1=0-19% damage) | 3 (3=40-59% damage) |
| Cn1ncc(-c2ccc(S(C)(=O)=O)cc2S(C)(=O)=O)c(O)c1=O [Compound 1.119] | 5 (5=80-100% damage) | 5 (5=80-100% damage) | 5 (5=80-100% damage) | 5 (5=80-100% damage) | 5 (5=80-100% damage) | 5 (5=80-100% damage) | 5 (5=80-100% damage) | 5 (5=80-100% damage) | 5 (5=80-100% damage) | 5 (5=80-100% damage) | 5 (5=80-100% damage) | 5 (5=80-100% damage) |
| Cc1c(-c2cnn(CC3CC3)c(=O)c2O)ccc(S(C)(=O)=O)c1C1=NOCC1 [Compound 1.120] | 5 (5=80-100% damage) | 3 (3=40-59% damage) | 5 (5=80-100% damage) | 4 (4=60-79% damage) | 5 (5=80-100% damage) | 4 (4=60-79% damage) | 5 (5=80-100% damage) | 5 (5=80-100% damage) | 4 (4=60-79% damage) | 5 (5=80-100% damage) | 5 (5=80-100% damage) | 5 (5=80-100% damage) |
| CCCn1ncc(-c2ccc(S(C)(=O)=O)c(C3=NOCC3)c2Cl)c(O)c1=O [Compound 1.125, 5-[2-chloro-3-(4,5-dihydroisoxazol-3-yl)-4-methylsulfonyl-phenyl]-4-hydroxy-2-propyl-pyridazin-3-one] | 5 (5=80-100% damage) | 4 (4=60-79% damage) | 5 (5=80-100% damage) | 4 (4=60-79% damage) | 5 (5=80-100% damage) | 1 (1=0-19% damage) | 5 (5=80-100% damage) | 5 (5=80-100% damage) | 5 (5=80-100% damage) | 5 (5=80-100% damage) | 5 (5=80-100% damage) | 5 (5=80-100% damage) |
| CCCn1ncc(-c2c(Cl)ccc(Cl)c2Cl)c(O)c1=O [Compound 1.128] | 1 (1=0-19% damage) | 1 (1=0-19% damage) | 1 (1=0-19% damage) | 1 (1=0-19% damage) | 3 (3=40-59% damage) | 1 (1=0-19% damage) | 1 (1=0-19% damage) | 1 (1=0-19% damage) | 1 (1=0-19% damage) | 1 (1=0-19% damage) | 2 (2=20-39% damage) | 4 (4=60-79% damage) |
| CCCn1ncc(-c2c(Cl)cccc2Cl)c(O)c1=O [Compound 1.129] | 2 (2=20-39% damage) | 1 (1=0-19% damage) | 1 (1=0-19% damage) | 1 (1=0-19% damage) | 2 (2=20-39% damage) | 1 (1=0-19% damage) | 3 (3=40-59% damage) | 1 (1=0-19% damage) | 1 (1=0-19% damage) | 1 (1=0-19% damage) | 2 (2=20-39% damage) | 3 (3=40-59% damage) |
| Cc1c(-c2cnn(C(C)(C)C)c(=O)c2O)ccc(S(C)(=O)=O)c1C1=NOCC1 [Compound 1.131] | 5 (5=80-100% damage) | 1 (1=0-19% damage) | 4 (4=60-79% damage) | 4 (4=60-79% damage) | 5 (5=80-100% damage) | 1 (1=0-19% damage) | 5 (5=80-100% damage) | 1 (1=0-19% damage) | 1 (1=0-19% damage) | 3 (3=40-59% damage) | 4 (4=60-79% damage) | 5 (5=80-100% damage) |
